Reference: patent publication US5610174A, “Use of α1A -selective adrenoceptor agonists for the treatment of urinary incontinence” (priority 1995, dated 1997)

How the values were obtained:
[1] = target: T1, female dog urethra (α1-adrenoceptor) (Canis lupus, UniProt A0A8I3NK63); experiment: Contractile study in isolated female dog urethra; conditions: for pEC50 Urethra: agonist contraction
T1 sequence (A0A8I3NK63 1-466): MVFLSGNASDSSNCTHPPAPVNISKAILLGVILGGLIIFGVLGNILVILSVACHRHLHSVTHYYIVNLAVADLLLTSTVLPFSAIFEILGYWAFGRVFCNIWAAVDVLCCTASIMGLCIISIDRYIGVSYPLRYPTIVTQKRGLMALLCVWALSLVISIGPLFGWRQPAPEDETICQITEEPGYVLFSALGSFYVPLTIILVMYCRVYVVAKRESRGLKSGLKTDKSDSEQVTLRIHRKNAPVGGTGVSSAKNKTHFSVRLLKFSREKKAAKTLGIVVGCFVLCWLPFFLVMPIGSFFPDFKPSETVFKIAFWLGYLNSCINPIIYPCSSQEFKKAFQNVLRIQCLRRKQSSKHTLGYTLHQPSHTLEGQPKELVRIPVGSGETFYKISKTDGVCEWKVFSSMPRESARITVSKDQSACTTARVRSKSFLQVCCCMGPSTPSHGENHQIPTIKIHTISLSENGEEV
From the text: (§1) In addition, similar studies were done using bladder neck tissue from female dogs. In order to identify the specific receptor subtype in each tissue, the pharmacological profile was compared to the profiles for these same drugs at the cloned human α1A, α1B, or α1C subtypes.
(§2) Tissue samples from the proximal urethra of male humans and male and female rabbits, as well as tissue samples from both the proximal urethra and bladder neck of male and female dogs were cut into transverse strips (3×10 mm) and suspended under 0.5 g tension in Krebs' physiological buffer at 37° C. To determine agonist potency (pEC50 )and antagonist affinity constants (pKB), concentration-effect curves to the non-selective agonist phenylepherine were constructed in the absence and in the presence of increasing concentrations of the antagonist. Up to four sequential curves were constructed in each tissue. Antagonists were allowed to equilibrate for 1h before each concentration-effect curve, and the drugs were completely washed out in between successive curves. In each experiment, one tissue served as a "time control", in which no antagonist was added so that changes in tissue sensitivity could be assessed as a function of time. […] In instances in which a single concentration of antagonist was used, pKB values were determined by the equation: […], where CR is defined as the ratio of the agonist EC50 in the presence of the antagonist to that in the absence of the antagonist.

[2] = tested on: α2-adrenoceptors; experiment: Activity at human α2-adrenoceptors (overall statement); type: cell-based; conditions: result in words
Procedure: α2 -Adrenoceptor-Mediated Inhibition of Forskolin Stimulated Adenylyl Cyclase
The agonist activity of test compounds was assayed by measuring their ability to inhibit adenylyl cyclase in cells stably transfected with each of the three cloned human α2 -adrenoceptors. LM(tk-) cells expressing the α2A - or the α2C -, as well as Y1 cells expressing the α2B -adrenoceptor were used. […] The formation of cyclic AMP was measured in cultures incubated with DMEM containing 1 mM theophylline. Twelve concentrations of the test compounds (from 10 pM to 100 μM) were added to the incubation medium and incubated at 37° C. for 20 min. Following this incubation step, 10 μM forskolin was added to stimulate the formation of cyclic AMP, and the cultures were incubated for another 10 min. The reaction was stopped by replacing the incubation medium with 100 mM HCl . The intracellular levels of cyclic AMP were measured by radioimmunoassay. The data from concentration-response curves was fitted to a four-parameter logistic equation, by non-linear regression analysis, to determine the pEC50 and intrinsic activity.

[3] = target: T2, human 5-HT2 receptor (Homo sapiens, UniProt P28223); experiment: Radioligand binding at human 5-HT2; conditions: [3H]ketanserin; read-out: pKi 5-HT2 (converted)
T2 construct: expressed in transfected cells; host or cells: COS-7 cells (text also names deposited cell line L-NGC-5-HT2, ATCC CRL 10287)
T2 sequence (P28223 whole entry): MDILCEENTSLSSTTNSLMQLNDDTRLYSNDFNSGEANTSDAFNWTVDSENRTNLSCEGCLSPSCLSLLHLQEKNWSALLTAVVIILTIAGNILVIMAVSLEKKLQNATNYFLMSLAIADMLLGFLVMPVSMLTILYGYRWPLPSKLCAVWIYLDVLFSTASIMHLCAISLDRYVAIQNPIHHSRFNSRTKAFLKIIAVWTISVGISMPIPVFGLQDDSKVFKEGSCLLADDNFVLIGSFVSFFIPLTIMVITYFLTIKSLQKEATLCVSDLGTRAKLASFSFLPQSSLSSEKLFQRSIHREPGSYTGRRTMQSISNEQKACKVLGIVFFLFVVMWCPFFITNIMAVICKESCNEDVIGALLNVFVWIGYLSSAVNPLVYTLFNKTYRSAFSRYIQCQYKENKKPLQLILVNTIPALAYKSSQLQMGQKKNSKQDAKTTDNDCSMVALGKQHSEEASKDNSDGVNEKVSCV
Procedure: The coding sequence of the human 5-HT2 receptor was obtained from a human brain cortex cDNA library, and cloned into the cloning site of pCEXV-3 eukaryotic expression vector. This construct was transfected into COS-7 cells by the DEAE-dextran method. Cells were harvested after 72 hours and lysed by sonication in 5 mM Tris-HCl, 5 mM EDTA, pH 7.5. This cell line was deposited with the ATCC on Oct. […] The cell lysates were centrifuged at 1000 rpm for 5 minutes at 4° C., and the supernatant was centrifuged at 30,000×g for 20 minutes at 4° C. The pellet was suspended in 50 mM Tris-HCl buffer (pH 7.7 at room temperature) containing 10 mM MgSO4, 0.5 mM EDTA, and 0.1% ascorbate. […] Nonspecific binding was defined by the addition of 10 μM mianserin. The bound radioligand was separated by filtration through GF/B filters using a cell harvester.

[4] = target: T3, rabbit urethra, male (α1-adrenoceptor) (Oryctolagus cuniculus, UniProt O02824); experiment: Contractile study in isolated male rabbit urethra; conditions: versus phenylephrine-induced contraction
T3 sequence (O02824 1-466): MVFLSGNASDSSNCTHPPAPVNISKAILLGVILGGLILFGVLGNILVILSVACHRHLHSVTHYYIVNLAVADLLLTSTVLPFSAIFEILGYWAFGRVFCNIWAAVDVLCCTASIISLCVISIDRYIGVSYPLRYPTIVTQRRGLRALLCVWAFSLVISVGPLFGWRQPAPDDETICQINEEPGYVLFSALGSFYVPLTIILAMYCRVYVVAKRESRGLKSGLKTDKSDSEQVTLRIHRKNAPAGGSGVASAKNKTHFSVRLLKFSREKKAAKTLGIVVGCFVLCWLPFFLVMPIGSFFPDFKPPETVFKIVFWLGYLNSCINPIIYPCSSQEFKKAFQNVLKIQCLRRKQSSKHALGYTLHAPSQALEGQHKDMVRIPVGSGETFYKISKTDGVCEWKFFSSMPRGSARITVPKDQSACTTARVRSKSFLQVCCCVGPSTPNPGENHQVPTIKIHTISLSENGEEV
From the text: as §1, §2

[5] = target: T4, rabbit urethra, female (α1-adrenoceptor) (Oryctolagus cuniculus, UniProt O02824); experiment: Contractile study in isolated female rabbit urethra; conditions: versus phenylephrine-induced contraction; read-out: pKB Rabbit Urethra Female (converted)
T4 construct: proximal urethra of male humans and male and female rabbits; from tissue; host or cells: rabbit proximal urethra strips, male or female
T4 sequence (O02824 1-466): T3 sequence (O02824 1-466)
From the text: as §1, §2

Row | SMILES | sensitivity of the contraction to prazosin, urethra [1] | pEC50 Urethra [1] | activity at α2-adrenoceptors [2] | Ki [3] | pKB Rabbit Urethra Male [4] | Kb [5]
1 | CS(=O)(=O)Nc1c(O)ccc2c1CCCC2C1=NCCN1 (racemic) [Compound A-61603, (±)-N-[5-(4,5-Dihydro-1H-imidazol-2-yl)-2-hydroxy-5,6,7,8-tetra-hydronaphthalen-1-yl]methanesulfonamide] | highly sensitive to prazosin | 6.7 | significant activity | 50100 nM | – | –
2 | COc1ccc(SC)c2c1C[C@@H]1[C@@H](C2)OCCN1C (relative stereo) [SDZ NVI-085, (±)-trans-4-Methyl-6-methoxy-9-thiomethoxy-3,4,4a, 5,10,10a-hexahydro-2H-naphtho[2,3-b][1,4]oxazine] | – | – | – | 316 nM | – | –
3 | COc1cc2c(cc1OC)CN(c1cc(N)c3cc(OC)c(OC)cc3n1)CC2 [Abanoquil, 2-(6,7-Dimethoxy-3,4-dihydro-1H-isoquinolin-2-yl)-6,7-dimethoxyquinolin-4-ylamine hemifumarate hydrate] | – | – | – | – | 8.7 | 2 nM
4 | COc1ccccc1N1CCN(CCCNc2c(C)c(=O)n(C)c(=O)n2C)CC1 [Compound 5-MU] | – | – | – | – | 7.8 | 39.8 nM
5 | CNCCc1ccc(O)c(NS(C)(=O)=O)c1 [SK&F 102652] | highly sensitive to prazosin | 6.0 | significant activity | – | – | –
